# How the values were obtained:
# Design in all cases: key: Active: Compounds with an IC50 value less than 30 μM were deemed to be active.; Not Active: Compounds with an IC50 value less than 30 μM were deemed to be active
# [1] = molecular target: T1, Brd4 bromodomain 1 (BRD4(1)) (Homo sapiens, UniProt O60885); experiment: Inhibition of tetra-acetylated histone H4 binding to Brd4 bromodomain 1 (TR-FRET); settings: tetra-acetylated histone H4 peptide, active = IC50 <30 μM
# T1 construct: Illustrative results with the first bromodomain of Brd4; made in house; host or cells: E. coli BL21 (DE3)
# Method in brief: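 IC50 values come from dose-response curves of the 665 nm to 620 nm TR-FRET signal decrease, measured after 2 h at room temperature. Reactions contained 200 nM E. coli-expressed His-tagged bromodomain, 25-50 nM biotinylated tetra-acetylated H4 peptide, Eu-streptavidin plus XL665 anti-His antibody, with 30 mM HEPES pH 7.4, 320 mM KF and 0.2% DMSO.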
# [2] = molecular target: T2, second bromodomain of Brd2 (BRD2(2)) (Homo sapiens, UniProt P25440); experiment: Inhibition of tetra-acetylated histone H4 binding to Brd2 bromodomain 2 (TR-FRET); settings: tetra-acetylated histone H4 peptide, active = IC50 <30 μM
# T2 construct: made in house; host or cells: E. coli BL21 (DE3)
# Procedure: Proteins were cloned and overexpressed with a N-terminal 6×His tag, then purified by nickel affinity followed by size exclusion chromatography. Briefly, E. coli BL21 (DE3) cells were transformed with a recombinant expression vector encoding N-terminally Nickel affinity tagged bromodomains from Brd2, Brd3, Brd4. Cell cultures were incubated at 37° C. with shaking to the appropriate density and induced overnight with IPTG. The supernatant of lysed cells was loaded onto Ni-IDA column for purification. Eluted protein is pooled, concentrated and further purified by size exclusion chromatography. Fractions representing monomeric protein were pooled, concentrated, aliquoted, and frozen at −80° C. for use in subsequent experiments.
# Binding of tetra-acetylated histone H4 and BET bromodomains was confirmed by a Time Resolved Fluorescence Resonance Energy Transfer (TR-FRET) method. N-terminally His-tagged bromodomains (200 nM) and biotinylated tetra-acetylated histone H4 peptide (25-50 nM, Millipore) were incubated in the presence of Europium Cryptate-labeled streptavidin (Cisbio Cat. #610SAKLB) and XL665-labeled monoclonal anti-His antibody (Cisbio Cat. #61HISXLB) in a white 96 well microtiter plate (Greiner). For inhibition assays, serially diluted test compound was added to these reactions in a 0.2% final concentration of DMSO. Final buffer concentrations were 30 mM HEPES pH 7.4, 30 mM NaCl, 0.3 mM CHAPS, 20 mM phosphate pH 7.0, 320 mM KF, 0.08% BSA). After a 2-h incubation at room temperature, the fluorescence by FRET was measured at 665 and 620 nm by a SynergyH4 plate reader (Biotek). Illustrative results with the first bromodomain of Brd4 and the second bromodomain of Brd2 are shown below. The binding inhibitory activity was shown by a decrease in 665 nm fluorescence relative to 620 nm. IC50 values were determined from a dose response curve.
# hIL-6 mRNA = experiment: Inhibition of hIL-6 mRNA transcription in U937 cells; format: cell-based, human; settings: LPS stimulation, active = IC50 <30 μM
# Procedure: In this example, hIL-6 mRNA in tissue culture cells was quantitated to measure the transcriptional inhibition of hIL-6 when treated with a compound of the present disclosure.
# A human leukemic monocyte lymphoma cell line (U937) was plated (3.2×10^4 cells per well) in a 96-well plate in […] RPMI-1640 containing 10% FBS and penicillin/streptomycin, and differentiated into macrophages for 3 days in 60 ng/mL PMA ([…]) at 37° C. in 5% CO2 prior to the addition of the compound of interest. The cells were pretreated for 1 h with the test compound prior to stimulation with 1 ug/mL lipopolysaccharide from Escherichia coli. The cells were incubated at 37° C. for 3 h before the cells were harvested. At time of harvest, the spent media was removed from the cells and the cells were rinsed in […] PBS. Cell lysis solution (70 μL) was added the cells in each well and incubated for 5-10 min at room temperature, to allow for complete cell lysis and detachment. mRNA was then prepared using the “mRNA Catcher PLUS plate” (Invitrogen), according to the protocol supplied. After the last wash, as much wash buffer as possible was aspirated without allowing the wells to dry. Elution buffer (E3, 70 μL) was then added to each well. mRNA was then eluted by incubating the mRNA Catcher PLUS plate with Elution Buffer for 5 min at 68° C. and then immediately placing the plate on ice.
# The eluted mRNA isolated was then used in a one-step quantitative real-time PCR reaction, using components of the Ultra Sense Kit together with Applied Biosystems primer-probe mixes. Real-time PCR data was analyzed, normalizing the Ct values for hIL-6 to an internal control, prior to determining the fold induction of each unknown sample, relative to the control.
# [3] = system: human AML MV-4-11 (CRL-9591) cells; experiment: Inhibition of cell proliferation in MV4-11 cells; format: cell-based; settings: human AML MV-4-11 cells, 72 h; active = IC50 <30 μM
# Procedure: MV4-11 cells: 96-well plates were seeded with 5×10^4 cells per well of exponentially growing human AML MV-4-11 (CRL-9591) cells and immediately treated with two-fold dilutions of test compounds, ranging from 30 μM to 0.2 μM. Triplicate wells were used for each concentration, as well as a media only and three DMSO control wells. The cells and compounds were incubated at 37° C., 5% CO2 for 72 h before adding 20 μL of the CellTiter Aqueous One Solution (Promega) to each well and incubating at 37° C., 5% CO2 for an additional 3-4 h. The absorbance was taken at 490 nm in a spectrophotometer and the percentage of proliferation relative to DMSO-treated cells was calculated after correction from the blank well. IC50 were calculated using the GraphPad Prism software.
# T2 sequence (P25440 344-453 limits assumed): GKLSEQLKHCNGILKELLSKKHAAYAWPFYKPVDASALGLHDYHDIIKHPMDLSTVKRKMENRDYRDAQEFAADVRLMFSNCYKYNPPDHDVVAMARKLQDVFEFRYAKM
SMILES,FRET activity (IC50 <30 μM) BRD4(1) [1],FRET activity (IC50 <30 μM) BRD2(2) [2],IL-6 activity (IC50 <30 μM) (hIL-6 mRNA),Cell Proliferation activity (IC50 <30 μM) [3]
"Cc1noc(C)c1-c1ccc(=O)n(C(C)c2ccccc2C(F)(F)F)c1 (stereo not drawn) [Example 38, 5-(3,5-Dimethylisoxazol-4-yl)-1-(1-(2-(trifluoromethyl)phenyl)ethyl)pyridin-2(1H)-one]",Active,Active,Active,–
"Cc1noc(C)c1-c1ccc(=O)n(Cc2ccncc2)c1 [Example 129, 5-(3,5-Dimethylisoxazol-4-yl)-1-(pyridin-4-ylmethyl)pyridin-2(1H)-one]",Active,Active,Active,–
"Cc1cccc(Cn2cc(-c3c(C)noc3C)ccc2=O)n1 [Example 46, 5-(3,5-Dimethylisoxazol-4-yl)-1-((6-methylpyridin-2-yl)methyl)pyridin-2(1H)-one]",Active,Active,Active,–
"Cc1noc(C)c1-c1ccc(=O)n(Cc2cccnc2)c1 [Example 44, 5-(3,5-Dimethylisoxazol-4-yl)-1-(pyridin-3-ylmethyl)pyridin-2(1H)-one]",Active,Active,Not Active,–
"CNC(=O)c1ccc(Cn2nc(-c3c(C)noc3C)ccc2=O)cc1 [Example 89, 4-((3-(3,5-Dimethylisoxazol-4-yl)-6-oxopyridazin-1(6H)-yl)methyl)-N-methylbenzamide]",Active,Active,Not Active,–
"Cc1noc(C)c1-c1ccc(=O)n(Cc2cccc3cccnc23)n1 [Example 102, 6-(3,5-Dimethylisoxazol-4-yl)-2-(quinolin-8-ylmethyl)pyridazin-3(2H)-one]",Active,Active,Active,–
"Cc1noc(C)c1-c1ccc(=O)n(C(C)c2ccccc2Cl)c1 (stereo not drawn) [Example 103, 1-(1-(2-Chlorophenyl)ethyl)-5-(3,5-dimethylisoxazol-4-yl)pyridin-2(1H)-one]",Active,Active,Not Active,–
"Cc1noc(C)c1-c1ccc(=O)n(Cc2ccccc2OC(F)(F)F)n1 [Example 39, 6-(3,5-Dimethylisoxazol-4-yl)-2-(2-(trifluoromethoxy)benzyl)pyridazin-3(2H)-one]",Active,Active,Active,–
"Cc1noc(C)c1-c1cc(C)c(=O)n(Cc2ccncc2)n1 [Example 87, 6-(3,5-Dimethylisoxazol-4-yl)-4-methyl-2-(pyridin-4-ylmethyl)pyridazin-3(2H)-one]",Active,Active,Not Active,Not Active
"COc1ccc(Cn2cc(-c3c(C)noc3C)ccc2=O)cc1 [Example 130, 5-(3,5-Dimethylisoxazol-4-yl)-1-(4-methoxybenzyl)pyridin-2(1H)-one]",Active,Active,Active,–

# Further lines, results first:
FRET activity (IC50 <30 μM) BRD4(1) [1],FRET activity (IC50 <30 μM) BRD2(2) [2],IL-6 activity (IC50 <30 μM) (hIL-6 mRNA),Cell Proliferation activity (IC50 <30 μM) [3],SMILES
Active,–,–,Active,"Cc1cncc(Nc2cc(-c3c(C)noc3C)cn(Cc3ccccc3)c2=O)c1 [Example 246, 1-benzyl-5-(3,5-dimethylisoxazol-4-yl)-3-((5-methylpyridin-3-yl)amino)pyridin-2(1H)-one]"
Active,–,Not Active,–,"Cc1noc(C)c1-c1cc(Nc2cccnn2)c(=O)n(Cc2ccccc2)c1 [Example 221, 1-benzyl-5-(3,5-dimethylisoxazol-4-yl)-3-(pyridazin-3-ylamino)pyridin-2(1H)-one]"
Active,Active,Active,–,"Cc1noc(C)c1-c1ccc(=O)n(Cc2ccc(F)cc2F)c1 [Example 138, 1-(2,4-Difluorobenzyl)-5-(3,5-dimethylisoxazol-4-yl)pyridin-2(1H)-one]"
Active,–,Active,Active,"Cc1noc(C)c1-c1cc(N)c(=O)n(Cc2ccccc2)n1 [Example 250, 4-amino-2-benzyl-6-(3,5-dimethylisoxazol-4-yl)pyridazin-3(2H)-one]"
Active,Active,Active,–,"Cc1noc(C)c1-c1ccc(=O)n(Cc2ccc(Cl)c(F)c2)c1 [Example 141, 1-(4-Chloro-3-fluorobenzyl)-5-(3,5-dimethylisoxazol-4-yl)pyridin-2(1H)-one]"
Active,–,Active,–,"Cc1ccc(Cn2cc(-c3c(C)noc3C)cc(N)c2=O)cn1 [Example 258, 3-amino-5-(3,5-dimethylisoxazol-4-yl)-1-((6-methylpyridin-3-yl)methyl)pyridin-2(1H)-one]"
Active,–,Active,–,"Cc1cccc(Cn2cc(-c3c(C)noc3C)cc(N)c2=O)n1 [Example 244, 3-amino-5-(3,5-dimethylisoxazol-4-yl)-1-((6-methylpyridin-2-yl)methyl)pyridin-2(1H)-one]"
Active,Active,Active,–,"COc1ccc(Cn2cc(-c3c(C)noc3C)ccc2=O)cc1OC [Example 131, 1-(3,4-Dimethoxybenzyl)-5-(3,5-dimethylisoxazol-4-yl)pyridin-2(1H)-one]"
Active,Active,Active,–,"Cc1noc(C)c1-c1ccc(=O)n(Cc2ccc(Cl)cc2F)c1 [Example 139, 1-(4-Chloro-2-fluorobenzyl)-5-(3,5-dimethylisoxazol-4-yl)pyridin-2(1H)-one]"
